Reference: patent US5030760A, “Tetrahydrophthalimides, and their production and use” (Sumitomo Chemical Company, Ltd., priority 1981, dated 1991)

What was measured:
corn [1] = assay: Test Example 1, foliar treatment, phytotoxicity to corn; assay type: in vivo; conditions: 3 weeks; further: ranges in brackets are in %
Experimental: (§1) The application of the tetrahydrophthalimides (I) as herbicides will be illustratively shown in the following Examples wherein the phytotoxicity to cultivated plants and the herbicidal activity on weeds were evaluated as follows: the aerial parts of the test plants were cut off and weighed (fresh weight); the percentage of the fresh weight of the treated plant to that of the untreated plant was calculated with the latter fresh weight taken as 100; and the crop damage and the herbicidal activity were evaluated by the standard given in the table below. The rating values of phytotoxicity, 0 and 1, and those of herbicidal effect, 5 and 4, are generally regarded as satisfactory to protect cultivated plants and control weeds, respectively. The rating values in the paddy field test alone were calculated from the dry weight of the test plants.
(§2) Plastic beakers (diameter, 10 cm; height, 10 cm) were filled with upland field soil, and the seeds of corn, barnyardgrass, wild oat, wild mustard and velvetleaf were separately sown in the beakers and grown for 2 weeks in the greenhouse. A designed amount of the test compound was sprayed to the foliage of the test plants by means of a small hand sprayer. After the spraying, the test plants were further grown for 3 weeks in the greenhouse, and herbicidal activity was examined. In this foliar treatment, the test compounds were formulated into an emulsifiable concentrate according to Preparation Example 2 and applied at a spray volume of 5 liters per are by dispersing it in water with the addition of a spreading agent.

barnyardgrass = assay: Test Example 1, foliar treatment, herbicidal activity; assay type: in vivo, Echinochloa crus-galli; conditions: 3 weeks; further: ranges in brackets are in %
Experimental: as §1, §2

wild oat = assay: as above; assay type: in vivo, Avena fatua; conditions: 3 weeks; further: ranges in brackets are in %
Experimental: as §1, §2

wild mustard = assay: as above; assay type: in vivo, Brassica kaber; conditions: 3 weeks
Experimental: as §1, §2

velvetleaf [2] = assay: as above; assay type: in vivo, Abutilon theophrasti; conditions: 3 weeks
Experimental: as §1, §2

corn [3] = assay: Test Example 4, pre-emergence treatment, phytotoxicity to corn; assay type: in vivo; conditions: 20 days; further: ranges in brackets are in %
Experimental: as §1
(§3) Plastic beakers (diameter, 10 cm; height, 10 cm) were filled with upland field soil, and the seeds of corn, cotton and soybean and the seeds of morningglory, velvetleaf, Johnsongrass and green foxtail were separately sown in the beakers. A designed amount of the test compound was sprayed over the top by means of a small hand sprayer. After the spraying, the test plants were grown for 20 days in the greenhouse, and herbicidal activity and phytotoxicity were examined. In this pre-emergence treatment, the test compounds were formulated into an emulsifiable concentrate according to Preparation Example 2 and applied at a spray volume of 5 liters per are by dispersing it in water with the addition of a spreading agent.

cotton = assay: Test Example 4, pre-emergence treatment, phytotoxicity to cotton; assay type: in vivo; conditions: 20 days; further: ranges in brackets are in %
Experimental: as §1, §3

soybean [4] = assay: Test Example 4, pre-emergence treatment, phytotoxicity to soybean; assay type: in vivo; conditions: 20 days; further: ranges in brackets are in %
Experimental: as §1, §3

morningglory = assay: Test Example 4, pre-emergence treatment, herbicidal activity; assay type: in vivo; conditions: 20 days; further: ranges in brackets are in %
Experimental: as §1, §3

velvetleaf [5] = assay: as above; assay type: in vivo, Abutilon theophrasti; conditions: 20 days
Experimental: as §1, §3

Johnsongrass [6] = assay: as above; assay type: in vivo, Sorghum halepense; conditions: 20 days
Experimental: as §1, §3

green foxtail [7] = assay: as above; assay type: in vivo, Setaria viridis; conditions: 20 days
Experimental: as §1, §3

soybean [8] = assay: Test Example 5, spraying over the top, phytotoxicity to soybean; assay type: in vivo; conditions: sprayed over the top, 20 days; further: ranges in brackets are in %
Experimental: as §1
(§4) Plastic trays (35 cm×25 cm×15 cm) were filled with upland field soil, and the seeds of tall morningglory, velvetleaf, jimsonweed, sicklepod, hemp sesbania, prickly side, Johnsongrass, green foxtail and large crabgrass and the seeds of soybean were sown therein. A designed amount of the test compound formulated into a wettable powder according to Preparation Example 1 and dispersed in water was sprayed over the top by means of a small hand sprayer at a spray volume of 5 liters per are. After the spraying, the test plants were grown in greenhouse for 20 days, and phytotoxicity and herbicidal activity were examined.

tall morningglory [9] = assay: Test Example 5, spraying over the top, herbicidal activity; assay type: in vivo, Ipomoea purpurea; conditions: sprayed over the top, 20 days; further: ranges in brackets are in %
Experimental: as §1, §4

velvetleaf [10] = assay: as above; assay type: in vivo, Abutilon theophrasti; conditions: sprayed over the top, 20 days
Experimental: as §1, §4

jimsonweed = assay: as above; assay type: in vivo, Datura stramonium; conditions: sprayed over the top, 20 days; further: ranges in brackets are in %
Experimental: as §1, §4

hemp sesbania = assay: as above; assay type: in vivo, Sesbania exaltator; conditions: sprayed over the top, 20 days; further: ranges in brackets are in %
Experimental: as §1, §4

prickly sida = assay: as above; assay type: in vivo, Sida spinosa; conditions: sprayed over the top, 20 days; further: ranges in brackets are in %
Experimental: as §1, §4

sicklepod [11] = assay: as above; assay type: in vivo, Cassia obtusifolia; conditions: sprayed over the top, 20 days
Experimental: as §1, §4

green foxtail [12] = assay: as above; assay type: in vivo, Setaria viridis; conditions: sprayed over the top, 20 days
Experimental: as §1, §4

large crabgrass = assay: as above; assay type: in vivo, Digitaria sanguinalis; conditions: sprayed over the top, 20 days; further: ranges in brackets are in %
Experimental: as §1, §4

Johnsongrass [13] = assay: as above; assay type: in vivo, Sorghum halepense; conditions: sprayed over the top, 20 days
Experimental: as §1, §4

corn [14] = assay: Test Example 3, soil surface spraying, phytotoxicity to corn; assay type: in vivo; conditions: 20 days; further: ranges in brackets are in %
Experimental: as §1
(§5) Plastic trays (35 cm×25 cm×15 cm) were filled with upland field soil, and the seeds of tall morningglory, velvetleaf and sicklepod and the seeds of corn were sown therein. A designed amount of the test compounds formulated into a wettable powder according to Preparation Example 1 was dispersed in water and applied by spraying at a spray volume of 5 liters per are to the whole surface of the soil. After the spraying, the test plants were placed in a greenhouse and grown for 20 days, and herbicidal activity and phytotoxicity were examined.

tall morningglory [15] = assay: Test Example 3, soil surface spraying, herbicidal activity; assay type: in vivo, Ipomoea purpurea; conditions: 20 days; further: ranges in brackets are in %
Experimental: as §1, §5

sicklepod [16] = assay: as above; assay type: in vivo, Cassia obtusifolia; conditions: 20 days
Experimental: as §1, §5

velvetleaf [17] = assay: as above; assay type: in vivo, Abutilon theophrasti; conditions: 20 days
Experimental: as §1, §5
Wherever Herbicidal activity, Green foxtail is given: ranges in brackets are in %.
Wherever Herbicidal activity, Johnsongrass is given: ranges in brackets are in %.
Wherever Herbicidal activity, Sicklepod is given: ranges in brackets are in %.
Wherever Herbicidal activity, Velvetleaf is given: ranges in brackets are in %.

`COc1cc(N2C(=O)C3=C(CCCC3)C2=O)c(F)cc1Br` [Compound No. 12, N-(4-bromo-2-fluoro-5-methoxyphenyl)-3,4,5,6-tetrahydrophthalimide] was tested, and the “Phytotoxicity, Corn” value (corn [1]; 1.25 g/are) was 1 (90-99), the “Phytotoxicity, Corn” value (corn [1]; 5 g/are) was 1 (90-99) and the “Herbicidal activity, Barnyardgrass” value (barnyardgrass; 1.25 g/are) was 2 (21-40). For the same compound, the “Herbicidal activity, Barnyardgrass” value (barnyardgrass; 5 g/are) was 5 (0), the “Herbicidal activity, Wild cat” value (wild oat; 1.25 g/are) was 1 (41-60) and the “Herbicidal activity, Wild cat” value (wild oat; 5 g/are) was 5 (0). For the same compound, the “Herbicidal activity, Wild mustard” value (wild mustard; 1.25 g/are) was 4 (1-10), the “Herbicidal activity, Wild mustard” value (wild mustard; 5 g/are) was 5 (0) and the “Herbicidal activity, Velvetleaf” value (velvetleaf [2]; 1.25 g/are) was 5 (0). For the same compound, the “Herbicidal activity, Velvetleaf” value (velvetleaf [2]; 5 g/are) was 5 (0), the “Phytotoxicity, Corn” value (corn [3]; 2.5 g/are) was 0 (100) and the “Phytotoxicity, Corn” value (corn [3]; 10 g/are) was 1 (90-99). The “Phytotoxicity, Cotton” value (cotton; 2.5 g/are) was 0 (100), the “Phytotoxicity, Soybean” value (soybean [4]; 2.5 g/are) was 0 (100) and the “Phytotoxicity, Soybean” value (soybean [4]; 10 g/are) was 0 (100). For the same compound, the “Herbicidal activity, Morningglory” value (morningglory; 10 g/are) was 5 (0), the “Herbicidal activity, Velvetleaf” value (velvetleaf [5]; 2.5 g/are) was 5 (0) and the “Herbicidal activity, Velvetleaf” value (velvetleaf [5]; 10 g/are) was 5 (0). For the same compound, the “Herbicidal activity, Johnsongrass” value (Johnsongrass [6]; 2.5 g/are) was 5 (0), the “Herbicidal activity, Johnsongrass” value (Johnsongrass [6]; 10 g/are) was 5 (0) and the “Herbicidal activity, Green foxtail” value (green foxtail [7]; 2.5 g/are) was 5 (0). The “Herbicidal activity, Green foxtail” value (green foxtail [7]; 10 g/are) was 5 (0), the “Phytotoxicity, Soybean” value (soybean [8]; 3 g/are) was 0 (100) and the “Phytotoxicity, Soybean” value (soybean [8]; 9 g/are) was 0 (100). For the same compound, the “Herbicidal activity, Tall morningglory” value (tall morningglory [9]; 3 g/are) was 4 (1-10), the “Herbicidal activity, Tall morningglory” value (tall morningglory [9]; 9 g/are) was 5 (0) and the “Herbicidal activity, Velvetleaf” value (velvetleaf [10]; 3 g/are) was 5 (0). For the same compound, the “Herbicidal activity, Velvetleaf” value (velvetleaf [10]; 9 g/are) was 5 (0), the “Herbicidal activity, Jimsonweed” value (jimsonweed; 3 g/are) was 5 (0) and the “Herbicidal activity, Jimsonweed” value (jimsonweed; 9 g/are) was 5 (0). The “Herbicidal activity, Hemp sesbania” value (hemp sesbania; 3 g/are) was 4 (1-10), the “Herbicidal activity, Hemp sesbania” value (hemp sesbania; 9 g/are) was 5 (0) and the “Herbicidal activity, Prickly sida” value (prickly sida; 3 g/are) was 5 (0). For the same compound, the “Herbicidal activity, Prickly sida” value (prickly sida; 9 g/are) was 5 (0), the “Herbicidal activity, Sicklepod” value (sicklepod [11]; 3 g/are) was 4 (1-10) and the “Herbicidal activity, Sicklepod” value (sicklepod [11]; 9 g/are) was 5 (0). The “Herbicidal activity, Green foxtail” value (green foxtail [12]; 3 g/are) was 5 (0), the “Herbicidal activity, Green foxtail” value (green foxtail [12]; 9 g/are) was 5 (0) and the “Herbicidal activity, Large crabgrass” value (large crabgrass; 3 g/are) was 5 (0). For the same compound, the “Herbicidal activity, Large crabgrass” value (large crabgrass; 9 g/are) was 5 (0), the “Herbicidal activity, Johnsongrass” value (Johnsongrass [13]; 3 g/are) was 5 (0) and the “Herbicidal activity, Johnsongrass” value (Johnsongrass [13]; 9 g/are) was 5 (0).

For `CCOc1cc(N2C(=O)C3=C(CCCC3)C2=O)c(F)cc1Cl` [compound 2], the “Phytotoxicity, Corn” value (corn [1]; 1.25 g/are) was 0 (100), the “Phytotoxicity, Corn” value (corn [1]; 5 g/are) was 1 (90-99) and the “Herbicidal activity, Barnyardgrass” value (barnyardgrass; 1.25 g/are) was 3 (11-20). The “Herbicidal activity, Barnyardgrass” value (barnyardgrass; 5 g/are) was 5 (0), the “Herbicidal activity, Wild cat” value (wild oat; 1.25 g/are) was 3 (11-20) and the “Herbicidal activity, Wild cat” value (wild oat; 5 g/are) was 5 (0). For the same compound, the “Herbicidal activity, Wild mustard” value (wild mustard; 1.25 g/are) was 5 (0), the “Herbicidal activity, Wild mustard” value (wild mustard; 5 g/are) was 5 (0) and the “Herbicidal activity, Velvetleaf” value (velvetleaf [2]; 1.25 g/are) was 5 (0). For the same compound, the “Herbicidal activity, Velvetleaf” value (velvetleaf [2]; 5 g/are) was 5 (0), the “Phytotoxicity, Corn” value (corn [14]; 5 g/are) was 0 (100) and the “Phytotoxicity, Corn” value (corn [14]; 10 g/are) was 0 (100). For the same compound, the “Herbicidal activity, Tall morningglory” value (tall morningglory [15]; 5 g/are) was 4 (1-10), the “Herbicidal activity, Tall morningglory” value (tall morningglory [15]; 10 g/are) was 4 (1-10) and the “Herbicidal activity, Sicklepod” value (sicklepod [16]; 5 g/are) was 4 (1-10). The “Herbicidal activity, Sicklepod” value (sicklepod [16]; 10 g/are) was 5 (0), the “Herbicidal activity, Velvetleaf” value (velvetleaf [17]; 5 g/are) was 5 (0) and the “Herbicidal activity, Velvetleaf” value (velvetleaf [17]; 10 g/are) was 5 (0). For the same compound, the “Phytotoxicity, Corn” value (corn [3]; 2.5 g/are) was 0 (100), the “Phytotoxicity, Corn” value (corn [3]; 10 g/are) was 1 (90-99) and the “Phytotoxicity, Cotton” value (cotton; 2.5 g/are) was 0 (100). For the same compound, the “Phytotoxicity, Cotton” value (cotton; 10 g/are) was 0 (100), the “Phytotoxicity, Soybean” value (soybean [4]; 2.5 g/are) was 0 (100) and the “Phytotoxicity, Soybean” value (soybean [4]; 10 g/are) was 0 (100). For the same compound, the “Herbicidal activity, Morningglory” value (morningglory; 2.5 g/are) was 4 (1-10), the “Herbicidal activity, Morningglory” value (morningglory; 10 g/are) was 4 (1-10) and the “Herbicidal activity, Velvetleaf” value (velvetleaf [5]; 2.5 g/are) was 5 (0). The “Herbicidal activity, Velvetleaf” value (velvetleaf [5]; 10 g/are) was 5 (0), the “Herbicidal activity, Johnsongrass” value (Johnsongrass [6]; 2.5 g/are) was 4 (1-10) and the “Herbicidal activity, Johnsongrass” value (Johnsongrass [6]; 10 g/are) was 5 (0). For the same compound, the “Herbicidal activity, Green foxtail” value (green foxtail [7]; 2.5 g/are) was 4 (1-10) and the “Herbicidal activity, Green foxtail” value (green foxtail [7]; 10 g/are) was 5 (0).
